{
  "source": "patent US5753681A",
  "about": "“Treatment and prophylaxis of pancreatitis” (Sankyo Company, Limited, priority 1996, dated 1998)",
  "key": {"[1]": {"test": "Histopathology of pancreatic tissue of Example 6: total cross-sectional area and cicatrized area", "type": "in vivo, male WBN/Kob rats", "settings": "9.5 months; for Cicatrized area in the exocrine pancreatic tissue: **p < 0.01", "procedure": "(§1) The measurement of the cicatrized area may also be carried out by conventional procedures. More specifically, male WBN/Kob rats are used as models of spontaneous chronic pancreatitis and are fed with a powdered feed admixed with a test compound. The pancreas of each animal is then totally enucleated. Its weight is measured and also the cicatrized area is measured relative to the total cross-sectional area of the pancreas tissue sliced by an image analyser.\nIn order to evaluate the results of Example 2 histopathologically, each pancreas used for weight measurement in Example 2 was fixed in 10% neutral formalin. It was then divided into a spleen side half and a duodenum side half, and each half was sliced at 3 mm intervals to provide cross-sectional tissue pieces. All of these tissue pieces were subjected to paraffin sectioning by conventional procedures and then to hematoxylin-eosin staining and Masson's trichrome staining to prepare two tissue preparations, which were used for histopathological examination. The total cross-sectional area of the pancreatic tissue piece on each preparation was measured using an image analyser (SPICCAII, manufactured by Olympus Optical Co., Ltd.).\n(§2) In addition, the surface area of the zone which had undergone degeneration and necrosis and in which the exocrine pancreatic tissue was replaced with connective tissue (the cicatrized area) was measured using an image analyser.\nThe test animals were male WBN/Kob rats. Each group of test animals contained 6 animals, and the animals were used for the experiment when they had reached 12 weeks old. The animals were fed with powdered feed F2 mixed with 0.2% or 0.05% of troglitazone for 9.5 months. These groups are hereinafter referred to as \"the 0.2% group\" and \"the 0.05% group\", respectively. The average doses of the compound during this period were 120 mg/kg/day and 30 mg/kg/day, respectively. Meanwhile, another six rats (control group) were fed with the powdered feed F2 only. After the rats had been fed with the feeds for 9.5 months, each rat was decapitated and its blood was collected. The blood serum was separated and the plasma lipase level was measured using an autoanalyser (type 7250, manufactured by Hitachi Ltd.).\nIn order to evaluate the results of Example 6 histopathologically, the total cross-sectional area and cicatrized area of each pancreas whose weight was measured in Example 6 was measured by the procedure described in Example 4."}, "[2]": {"type": "in vivo, Wistar-Imamichi rats", "settings": "170 mg/kg/day", "source_text": "(§3) Since the decrease in the amount of pancreatic parenchyma resulting from chronic pancreatitis causes loss of pancreatic weight, any suppression of the decrease in the amount of pancreatic parenchyma can be used as an index for evaluating any improvement in the pancreatitis. Furthermore, since degeneration and necrosis of the pancreatic parenchyma and its replacement by connective tissue occurs in chronic pancreatitis, the seriousness of the pancreatitis can be estimated by histopathologically measuring the area over which the pancreatic parenchyma is replaced with connective tissue (known as the \"cicatrized area\").\n(§4) Measurement of the weight of the pancreas may be carried out by conventional procedures after the experimental animals have been sacrificed by phlebotomy.\nThe effects of pancreatitis may be simulated, as is conventional, in experimental animals, by the administration of streptozotocin [(N-methylnitroso-carbamoyl)-D-glucosamine: R. A. Bennett et al., Cancer Res., 41, 2786-2790, (1981); a product of Sigma Chemical Company], which is capable of specifically destroying the Langerhans islet B cells and which thus induces a decrease in pancreatic weight. Streptozotocin is administered intravenously to the experimental animal, and then a powdered feed admixed with a test compound is given to a group of animals which have been dosed with streptozotocin. This group is hereafter referred to as the \"treated group\". Meanwhile, a powdered feed only is given to another group of animals which have been dosed with streptozotocin. This group is hereafter referred to as the \"control group\". Normal animals (undosed) fed with the feed only are also used as a blank group against the experimental animals (dosed with streptozotocin). After the test compounds have been administered to the animals for a predetermined period, each animal is sacrificed to measure its pancreatic weight. […]\nMeanwhile, another group of rats was fed with the powdered feed F2 only. […] After a predetermined period, the rats were sacrificed and the pancreatic weight of each animal was measured."}, "[3]": {"test": "Histopathology of pancreatic tissue of Example 2: total cross-sectional area and cicatrized area", "type": "in vivo, male WBN/Kob rats", "settings": "0.2% in feed, three months", "source_text": "as §3, §1\nThe test animals were male WBN/Kob rats, which are commonly used as models of spontaneous chronic pancreatitis and suffer pancreatic weight loss and dysfunction of the exocrine pancreatic tissue due to degeneration and necrosis of the pancreatic parenchyma and its replacement by connective tissue [Tsuchitani et al., Laboratory Animals, 19(3), 200-207, (1985)]. Each group of test animals contained 4 animals, and the animals were used for the experiment when they had reached 12 weeks old. The animals were fed with powdered feed F2 mixed with 0.2% of troglitazone for three months. This group is hereinafter referred to as \"the treated group\". The average dose of the compound during this period was 140 mg/kg/day. Meanwhile, another four rats (control group) were fed with the powdered feed F2 only. After the rats had been fed with the feeds for three months, the pancreas of each animal was totally enucleated and its weight was measured.\nIn order to evaluate the results of Example 2 histopathologically, each pancreas used for weight measurement in Example 2 was fixed in 10% neutral formalin. It was then divided into a spleen side half and a duodenum side half, and each half was sliced at 3 mm intervals to provide cross-sectional tissue pieces. […] The total cross-sectional area of the pancreatic tissue piece on each preparation was measured using an image analyser (SPICCAII, manufactured by Olympus Optical Co., Ltd.).\nas §2"}, "[4]": {"test": "Increase in the pancreatic weight in a model of spontaneous chronic pancreatitis (3 months)", "type": "in vivo, male WBN/Kob rats", "settings": "treated group, 0.2% in feed, 140 mg/kg/day, three months; control 773 ± 17; **p < 0.01 vs. control", "source_text": "as §3, §4\nThe test animals were male WBN/Kob rats, which are commonly used as models of spontaneous chronic pancreatitis and suffer pancreatic weight loss and dysfunction of the exocrine pancreatic tissue due to degeneration and necrosis of the pancreatic parenchyma and its replacement by connective tissue [Tsuchitani et al., Laboratory Animals, 19(3), 200-207, (1985)]. […] After the rats had been fed with the feeds for three months, the pancreas of each animal was totally enucleated and its weight was measured."}, "Acute toxicity": {"test": "Acute toxicity", "type": "in vivo, ddY mice (male)", "settings": "single oral dose of 300 mg/kg, observed for 5 days, three mice", "procedure": "Acute toxicity was assayed by conventional procedures. […] At the end of this time, the animals were all alive. When the acute toxicities of Compounds No. 2, 3, 4 and 10 were measured in the same manner, the mice were all alive after an oral dose of 300 mg/kg or more."}},
  "note": "Like-named read-outs stand apart in the source and are kept apart here.",
  "data": [
    {"smiles": "Cc1c(C)c2c(c(C)c1O)CCC(C)(COc1ccc(CC3SC(=O)NC3=O)cc1)O2", "note": "(centres unmarked) [troglitazone, 5-[4-(6-Hydroxy-2,5,7,8-tetramethylchroman-2-ylmethoxy)benzyl]thiazolidine-2,4-dione]", "values": [
      {"measurement": "Cicatrized area in the exocrine pancreatic tissue", "setting": "[1]; duodenum side, 0.05% group, control 2.48 ± 0.39", "value": "1.03 ± 0.16", "unit": "mm^2"},
      {"measurement": "Total cross-sectional area of pancreatic tissue piece", "setting": "[1]; duodenum side, 0.05% group, control 106.1 ± 6.6", "value": "110.6 ± 7.7", "unit": "mm^2"},
      {"measurement": "Cicatrized area in the exocrine pancreatic tissue", "setting": "[1]; duodenum side, 0.2% group, control 2.48 ± 0.39", "value": "0.65 ± 0.06", "unit": "mm^2"},
      {"measurement": "Total cross-sectional area of pancreatic tissue piece", "setting": "[1]; duodenum side, 0.2% group, control 106.1 ± 6.6", "value": "122.3 ± 7.4", "unit": "mm^2"},
      {"measurement": "Cicatrized area in the exocrine pancreatic tissue", "setting": "[1]; spleen side pancreatic half, 0.05% group, control 4.96 ± 0.82", "value": "1.68 ± 0.12", "unit": "mm^2"},
      {"measurement": "Total cross-sectional area of pancreatic tissue piece", "setting": "[1]; spleen side pancreatic half, 0.05% group, control 103.0 ± 16.9", "value": "96.2 ± 8.2", "unit": "mm^2"},
      {"measurement": "Cicatrized area in the exocrine pancreatic tissue", "setting": "[1]; spleen side pancreatic half, 0.2% group, control 4.96 ± 0.82", "value": "1.23 ± 0.19", "unit": "mm^2"},
      {"measurement": "Total cross-sectional area of pancreatic tissue piece", "setting": "[1]; spleen side pancreatic half, 0.2% group, control 103.0 ± 16.9, *p < 0.05", "value": "141.9 ± 10.6", "unit": "mm^2"},
      {"measurement": "Inhibition of pancreatic weight loss (in words)", "setting": "[2]; 0.2% in feed, 14 days, vs. control group", "value": "significantly inhibited the pancreatic weight loss"},
      {"measurement": "Lesions such as edema in the pancreas", "setting": "[2]; rat, in vivo", "value": "no lesions such as edema"},
      {"measurement": "Pancreatic weight", "setting": "[2]; treated group, 0.2% in feed, 14 days, after streptozotocin 25 mg/kg i.v., normal 1333 ± 43, control 1253 ± 39, *p < 0.05 vs. control", "value": "1435 ± 40", "unit": "mg"},
      {"measurement": "Cicatrized area in the exocrine pancreatic tissue", "setting": "[3]; duodenum side half, control 10.84 ± 0.60, *p < 0.05", "value": "6.76 ± 1.37", "unit": "mm^2"},
      {"measurement": "Total cross-sectional area of pancreatic tissue piece", "setting": "[3]; duodenum side half, control 89.5 ± 6.6", "value": "132.8 ± 23.6", "unit": "mm^2"},
      {"measurement": "Cicatrized area in the exocrine pancreatic tissue", "setting": "[3]; spleen side pancreatic half, control 5.95 ± 0.90, *p < 0.05", "value": "3.31 ± 0.48", "unit": "mm^2"},
      {"measurement": "Total cross-sectional area of pancreatic tissue piece", "setting": "[3]; spleen side pancreatic half, control 150.5 ± 4.6, *p < 0.05", "value": "172.6 ± 5.3", "unit": "mm^2"},
      {"measurement": "Pancreatic weight", "setting": "[4]", "value": "936 ± 27", "unit": "mg"},
      {"measurement": "Survival (acute toxicity)", "setting": "Acute toxicity", "value": "all alive"}
    ]}
  ]
}
